Results published in ChEMBL document CHEMBL1134992, “Six-membered cyclic ureas as HIV-1 protease inhibitors: a QSAR study based on CODESSA PRO approach. Quantitative structure-activity relationships” (Bioorg Med Chem Lett, 2002).

Molecular target: Human immunodeficiency virus type 1 protease (Human immunodeficiency virus 1, UniProt Q72874)
Test: Inhibitory activity of compound against HIV-1 aspartyl protease.
Conditions: read-out: Log 1/Ki (converted)

In the case of `CNc1cc(CN2C(=O)N(Cc3ccc(F)c(NC)c3)[C@H](Cc3ccccc3)[C@H](O)[C@H]2CCc2ccccc2)ccc1F`, the Ki was 4.91 nM.
